Results: patent US12692253B2, “Antimicrobial compounds and methods” (Curza Global, LLC, priority 2019, dated 2026)
Read-outs that look alike come from different tables or passages of the source.

Legend:
E. coli (Ec) = assay: Broth microdilution minimum inhibitory concentration (MIC), CLSI; assay type: cell-based; settings: Escherichia coli, read-out: E. coli + bicarb MIC
Summary of the method: (§1)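 Modified CLSI method: CAMHB (± bicarbonate 6.25/25 mM or 0-50% human serum), 8-point two-fold series, triplicates, 5×10^4 CFU/well.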

P. aeruginosa (Pa) = assay: as above; assay type: cell-based; settings: Pseudomonas aeruginosa, read-out: Pa MIC + bicarb
Summary of the method: as §1

S. aureus (Sa) = assay: as above; assay type: cell-based; settings: Staphylococcus aureus, read-out: Sa + bicarb MIC
Summary of the method: as §1

A. baumannn (Ab) = assay: as above; assay type: cell-based; settings: read-out: Ab + bicarb MIC
Summary of the method: as §1

E. faecalis (Ef) = assay: as above; assay type: cell-based; settings: Enterococcus faecalis, read-out: Ef + bicarb MIC
Summary of the method: as §1

[1] = test system: E. coli S30 extract (bacterial protein synthesis); assay: E. coli S30 extract coupled transcription-translation luciferase assay (inhibition of bacterial protein synthesis); assay type: biochemical; settings: read-out: S30 IC50 (μM/% inhib.)
Summary of the method: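 Luciferase luminescence quantified inhibition of protein synthesis relative to water controls, with no-DNA reactions giving background. Compounds in 2-fold serial dilution (8 levels) were incubated 1 hour at 37 °C with E. coli S30 extract, amino acids and pBESTluc plasmid, then chilled to stop.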

[2] = target: Rabbit Reticulocyte Lysate (eukaryotic protein synthesis); assay: Rabbit reticulocyte lysate luciferase assay (inhibition of eukaryotic protein synthesis); assay type: biochemical; settings: read-out: Rabbit reticulocyte IC50 (μM/% inhib.)
Summary of the method: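 Percent inhibition calculated against water-only controls from luminescence; background set by lysate lacking RNA. Compounds, 8-point 2-fold titration, incubated 90 minutes at 30° C with nuclease-treated rabbit reticulocyte lysate programmed with luciferase control RNA plus complete amino acids.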

[3] = growth medium supplemented with sodium bicarbonate
[4] = class by IC50 or % inhibition @ 1 μM
[5] = growth medium with sodium bicarbonate
[6] = A. baumannn, growth medium with sodium bicarbonate

Row | SMILES | MIC (E. coli (Ec); [3]) | MIC (P. aeruginosa (Pa); [3]) | MIC (S. aureus (Sa); [3]) | MIC (A. baumannn (Ab); Acinetobacter baumannii) | MIC (E. faecalis (Ef); [3]) | IC50 [1, 4] | IC50 [2, 4] | MIC (E. coli (Ec); [5]) | MIC (P. aeruginosa (Pa); [5]) | MIC (S. aureus (Sa); [5]) | MIC (A. baumannn (Ab); [6]) | MIC (E. faecalis (Ef); [5]) | IC50 ([1]; % inhibition @ 1 μM) | IC50 ([2]; % inhibition @ 1 μM)
1 | CCC(Cc1ccc(-n2ccc(NC(=O)N3CCN(C(=O)C(C)(C)N)CC3)nc2=O)cc1F)N1C[C@@H]2[C@@H](CN)[C@@H]2C1 (some centres unmarked) [Compound 154] | < 8 µg/mL | < 8 µg/mL | < 8 µg/mL | < 8 µg/mL | < 8 µg/mL | < 0.5 µM | ≥ 1 µM |  |  |  |  |  |  | 
2 | CC(C)C(Cc1ccc(-n2ccc(NC(=O)N3CCN(C(=O)C(C)(C)N)CC3)nc2=O)cc1)N1C[C@@H]2[C@@H](CN)[C@@H]2C1 (some centres unmarked) [Compound 155] | < 8 µg/mL | < 8 µg/mL | < 8 µg/mL | < 8 µg/mL | < 8 µg/mL | < 0.5 µM | ≥ 1 µM |  |  |  |  |  |  | 
3 | CC(C)CC(Cc1ccc(-n2ccc(NC(=O)N3CCN(C(=O)C(C)(C)N)CC3)nc2=O)cc1)N1C[C@@H]2[C@@H](CN)[C@@H]2C1 (some centres unmarked) [Compound 156] | < 8 µg/mL | < 8 µg/mL | < 8 µg/mL | < 8 µg/mL | < 8 µg/mL | < 0.5 µM | ≥ 1 µM |  |  |  |  |  |  | 
4 | CC(Cc1ccc(-n2ccc(NC(=O)N3CCN(C(=O)C(C)(C)N)CC3)nc2=O)cc1)N1C[C@@H]2[C@@H](CN)[C@@H]2[C@H]1CO (some centres unmarked) [Compound 157] | < 8 µg/mL | > 32 µg/mL | < 8 µg/mL | > 32 µg/mL | 8 to 32 µg/mL | < 0.5 µM | ≥ 1 µM |  |  |  |  |  |  | 
5 | CC(C)(N)C(=O)N1CCN(C(=O)Nc2ccn(-c3ccc(CCN4CC5(CNC5)C4)cc3)c(=O)n2)CC1 [Compound 160] | < 8 µg/mL | > 32 µg/mL | > 32 µg/mL | > 32 µg/mL | > 32 µg/mL | ≥ 1 µM | ≥ 1 µM |  |  |  |  |  |  | 
6 | CC(C)(N)C(=O)N1CCN(C(=O)Nc2ccn(-c3ccc(CCN4CCC5(CCNC5)C4)cc3)c(=O)n2)CC1 (centres unmarked) [Compound 161] | < 8 µg/mL | > 32 µg/mL | < 8 µg/mL | > 32 µg/mL | 8 to 32 µg/mL | < 0.5 µM | ≥ 1 µM |  |  |  |  |  |  | 
7 | CC(Cc1ccc(-n2ccc(NC(=O)N3CCN(C(=O)C(C)(C)N)CC3)nc2=O)cc1)N1CC2(CNC2)C1 (centres unmarked) [Compound 162] | 8 to 32 µg/mL | > 32 µg/mL | 8 to 32 µg/mL | > 32 µg/mL | > 32 µg/mL | ≥ 1 µM | ≥ 1 µM |  |  |  |  |  |  | 
8 | CC(Cc1ccc(-n2ccc(NC(=O)N3CCN(C(=O)C(C)(C)N)CC3)nc2=O)cc1)N1CCC2(CC1)CNC2 (centres unmarked) [Compound 163] |  |  |  |  |  |  |  | < 8 µg/mL | > 32 µg/mL | < 8 µg/mL | > 32 µg/mL | > 32 µg/mL | ≥ 1 µM | ≥ 1 µM
9 | CN(Cc1ccc(-n2ccc(NC(=O)N3CCN(C(=O)C(C)(C)N)CC3)nc2=O)cc1)C12CCC(N)(CC1)C2 [Compound 164] |  |  |  |  |  |  |  | < 8 µg/mL | > 32 µg/mL | < 8 µg/mL | 8 to 32 µg/mL | < 8 µg/mL | < 0.5 µM | ≥ 1 µM
10 | CN(Cc1ccc(-n2ccc(NC(=O)N3CCN(C(=O)C(C)(C)N)CC3)nc2=O)cc1)C12CCC(N)(CC1)CC2 [Compound 165] |  |  |  |  |  |  |  | < 8 µg/mL | > 32 µg/mL | < 8 µg/mL | 8 to 32 µg/mL | < 8 µg/mL | 0.5 to 1 µM | ≥ 1 µM
11 | CCN(Cc1ccc(-n2ccc(NC(=O)N3CCN(C(=O)C(C)(C)N)CC3)nc2=O)cc1)C12CCC(N)(CC1)C2 [Compound 166] |  |  |  |  |  |  |  | < 8 µg/mL | > 32 µg/mL | < 8 µg/mL | 8 to 32 µg/mL | < 8 µg/mL | < 0.5 µM | ≥ 1 µM
12 | CC(C)(N)C(=O)N1CCN(C(=O)Nc2ccn(-c3ccc(CNC45CCC(N)(CC4)CC5)cc3)c(=O)n2)CC1 [Compound 167] |  |  |  |  |  |  |  | < 8 µg/mL | 8 to 32 µg/mL | < 8 µg/mL | 8 to 32 µg/mL | < 8 µg/mL | < 0.5 µM | ≥ 1 µM
13 | CC(C)(N)C(=O)N1CCN(C(=O)Nc2ccn(-c3ccc(CNC45CCC(N)(CC4)C5)cc3)c(=O)n2)CC1 [Compound 168] |  |  |  |  |  |  |  | < 8 µg/mL | > 32 µg/mL | < 8 µg/mL | > 32 µg/mL | < 8 µg/mL | < 0.5 µM | ≥ 1 µM
14 | CN(Cc1ccc(-n2ccc(NC(=O)N3CCN(C(=O)C(C)(C)N)CC3)nc2=O)cc1)C12CC(N)(C1)C2 [Compound 169] |  |  |  |  |  |  |  | 8 to 32 µg/mL | > 32 µg/mL | > 32 µg/mL | > 32 µg/mL | > 32 µg/mL | ≥ 1 µM | ≥ 1 µM
15 | CCN(Cc1ccc(-n2ccc(NC(=O)N3CCN(C(=O)C(C)(C)N)CC3)nc2=O)cc1)C12CC(N)(C1)C2 [Compound 170] |  |  |  |  |  |  |  | < 8 µg/mL | > 32 µg/mL | > 32 µg/mL | > 32 µg/mL | > 32 µg/mL | < 0.5 µM | ≥ 1 µM
16 | CC(C)(N)C(=O)N1CCN(C(=O)Nc2ccn(-c3ccc(CNC45CC(N)(C4)C5)cc3)c(=O)n2)CC1 [Compound 171] |  |  |  |  |  |  |  | 8 to 32 µg/mL | > 32 µg/mL | > 32 µg/mL | > 32 µg/mL | > 32 µg/mL | ≥ 1 µM | ≥ 1 µM
17 | CCN(Cc1ccc(-n2ccc(NC(=O)N3CCN(C(=O)C(C)(C)N)CC3)nc2=O)cc1)C12CCC(N)(CC1)CC2 [Compound 172] |  |  |  |  |  |  |  | < 8 µg/mL | > 32 µg/mL | < 8 µg/mL | 8 to 32 µg/mL | < 8 µg/mL | < 0.5 µM | ≥ 1 µM
18 | CC(C)(N)C(=O)N1CCN(C(=O)Nc2ccn(-c3ccc(CNC45CC(CN)(C4)C5)cc3)c(=O)n2)CC1 [Compound 173] |  |  |  |  |  |  |  | < 8 µg/mL | > 32 µg/mL | > 32 µg/mL | > 32 µg/mL | > 32 µg/mL | ≥ 1 µM | ≥ 1 µM
19 | CN(Cc1ccc(-n2ccc(NC(=O)N3CCN(C(=O)C(C)(C)N)CC3)nc2=O)cc1)C12CC(CN)(C1)C2 [Compound 174] |  |  |  |  |  |  |  | < 8 µg/mL | > 32 µg/mL | < 8 µg/mL | > 32 µg/mL | 8 to 32 µg/mL | ≥ 1 µM | ≥ 1 µM
20 | CCN(Cc1ccc(-n2ccc(NC(=O)N3CCN(C(=O)C(C)(C)N)CC3)nc2=O)cc1)C12CC(CN)(C1)C2 [Compound 175] |  |  |  |  |  |  |  | < 8 µg/mL | > 32 µg/mL | < 8 µg/mL | > 32 µg/mL | < 8 µg/mL | ≥ 1 µM | ≥ 1 µM
21 | CC(Cc1ccc(-n2ccc(NC(=O)N3CCN(C(=O)C(C)(C)N)CC3)nc2=O)cc1)NC1CC2(CC(N)C2)C1 (centres unmarked) [Compound 176] |  |  |  |  |  |  |  | < 8 µg/mL | > 32 µg/mL | < 8 µg/mL | > 32 µg/mL | 8 to 32 µg/mL | ≥ 1 µM | ≥ 1 µM
22 | CC(C)(N)C(=O)N1CCN(C(=O)Nc2ccn(-c3ccc(CCNC4CC5(CC(N)C5)C4)cc3)c(=O)n2)CC1 (centres unmarked) [Compound 177] |  |  |  |  |  |  |  | < 8 µg/mL | > 32 µg/mL | < 8 µg/mL | > 32 µg/mL | 8 to 32 µg/mL | ≥ 1 µM | ≥ 1 µM
23 | CC(C)(N)C(=O)N1CCN(C(=O)Nc2ccn(-c3ccc(C[C@H](N)NN4C[C@@H]5[C@@H](N)[C@@H]5C4)cc3)c(=O)n2)CC1 [Compound 178] |  |  |  |  |  |  |  | > 32 µg/mL | > 32 µg/mL | > 32 µg/mL | > 32 µg/mL | > 32 µg/mL | ≥ 1 µM | ≥ 1 µM
